Here are results for two compounds from US5087562A, “Humoral hypercalcemic factor antagonists with modification at position 13 . . ” (Merck & Co., Inc., priority 1990, dated 1992).

Test [1] has as its system bovine renal membrane adenylate cyclase. To be noted: bovine renal cortical membranes; quoted from Horiuchi et al.; cited from earlier work.
For test [2], the target named is T1, Bovine renal cortical plasma membranes (HCF cell surface receptor) (Bos taurus, UniProt Q1LZF7).
T1 construct: from tissue; host or cells: bovine renal cortex plasma membranes
T1 sequence (Q1LZF7 29-589): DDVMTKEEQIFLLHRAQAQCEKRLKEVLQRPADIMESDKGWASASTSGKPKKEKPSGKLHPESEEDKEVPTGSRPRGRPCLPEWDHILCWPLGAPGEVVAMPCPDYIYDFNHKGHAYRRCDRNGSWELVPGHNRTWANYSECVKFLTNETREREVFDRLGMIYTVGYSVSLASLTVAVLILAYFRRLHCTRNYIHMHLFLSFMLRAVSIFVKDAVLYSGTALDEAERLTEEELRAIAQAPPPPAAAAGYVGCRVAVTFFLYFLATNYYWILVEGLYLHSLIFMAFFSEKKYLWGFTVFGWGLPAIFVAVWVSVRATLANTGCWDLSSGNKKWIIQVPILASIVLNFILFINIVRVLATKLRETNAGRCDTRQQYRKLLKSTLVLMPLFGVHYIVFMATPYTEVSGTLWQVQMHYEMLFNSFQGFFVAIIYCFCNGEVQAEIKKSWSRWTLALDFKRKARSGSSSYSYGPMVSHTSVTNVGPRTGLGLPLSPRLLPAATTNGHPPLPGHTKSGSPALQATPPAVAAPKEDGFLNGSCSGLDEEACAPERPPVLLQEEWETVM
In words: HCF binding assay (radioligand receptor assay). The settings on record: radioligand [Nle^8,18,(^125 I)-Tyr^34]bPTH(1-34)NH2, 30 min at 21° C. The method, then:
HCF analogues were analysed in a new receptor assay which modified the assay reported in Rosenblatt et al., Endocrin 107: 545-550 (1980). The binding assay used [Nle^8,18, (^125 I)-Tyr^34 ]bPTH (1-34)NH2 which was purified by HPLC (Novapak C18, 32-35% CH3 CN in 0.1% TFA) and was stored as aliquots in 25 mM TrisHCl/1%BSAat -70° C. Bovine renal cortical plasma membranes were incubated with radioligand (25,000 cpm) in a Tris-containing buffer (250 μl) for 30 min. at 21° C. Once equilibrium was reached, bound and free radioligand were separated by centrifugation.
High specific binding (85%) to bovine renal cortical membranes was obtained consistently.
The assay reported on page 546 in Rosenblatt, et al. is as follows:
Radioligand binding assay: A PTH-binding assay based on the sulfur-free ^125 I-labeled hormone analog, [Nle-8,Nle-18,Tyr-34]-bPTH-(1-34)amide,was employed (4). The assay is specific and saturable with regard to PTH binding, and binding avidity in this system correlates closely with biological acitibity for multiple PTH agonist fragments and analogs. […] Inhibition of specific binding of radioligand was assessed for each fragment over several log orders of magnitude. […] In each assay, inhibition of radioligand binding was determined in triplicate at each concentration of peptide used.

hHCF-(1-34)NH2: in test [1], the “potency in adenylate cyclase assay (stimulation)” value is “potency comparable to PTH”. The compound `CC[C@H](C)[C@H](NC(=O)[C@H](CC(C)C)NC(=O)[C@H](Cc1c[nH]cn1)NC(=O)[C@H](Cc1c[nH]cn1)NC(=O)[C@H](CC(C)C)NC(=O)[C@H](Cc1ccccc1)NC(=O)[C@H](Cc1ccccc1)NC(=O)[C@H](CCCNC(=N)N)NC(=O)[C@H](CCCNC(=N)N)NC(=O)[C@H](CCCNC(=N)N)NC(=O)[C@H](CC(C)C)NC(=O)[C@H](CC(=O)O)NC(=O)[C@H](CCC(N)=O)NC(=O)[C@@H](NC(=O)[C@H](CO)NC(=O)[C@H](CCCCNC(=O)CCc1ccccc1)NC(=O)[C@@H](Cc1c[nH]c2ccccc12)NC(=O)[C@H](CC(C)C)NC(=O)[C@H](CC(=O)O)NC(=O)[C@H](Cc1c[nH]cn1)NC(=O)CCC(C)C)[C@@H](C)CC)C(=O)N[C@@H](C)C(=O)N[C@@H](CCC(=O)O)C(=O)N[C@H](C(=O)N[C@@H](Cc1c[nH]cn1)C(=O)N[C@H](C(=O)N[C@@H](C)C(N)=O)[C@@H](C)O)[C@@H](C)CC` [desamino [Leu^11, D-Trp^12, Lys^13 (N^ε --CO(CH2)2 -Phenyl)]hHCF(8-34)NH2] registered a Kb in test [2] of 0.02 ± 0.003 µM.
